# Results: patent US20190112272A1, “SYNTHETIC RETINOIDS FOR USE IN RAR MEDIATED CONDITIONS” (High Force Research Limited, priority 2016, published 2019)
# Key:
# [1] = system: retinoic acid response element (RARE) driven LacZ reporter in Sil-15 reporter cells (F9-RARE-lacZ cells); test: RARE-driven LacZ reporter gene assay (genomic response, Sil-15 reporter cells, X-Gal assay); assay type: cell-based; settings: for activation of transcription via a RARE (genomic response): Sil-15 reporter cells, result in words
# Source text: (§1) The action of retinoic acid in the brain, the relative importance of genomic versus non-genomic activity of retinoic acid was investigated by determining whether some RAR ligands preferentially activated one pathway. Retinoic acid (FIG. 1) was used as a compound known to induce both genomic and non-genomic pathways of retinoic acid signalling. We measured its relative activity as an inducer of gene transcription using a construct in which the promoter element to which the retinoic acid receptor binds (retinoic acid response element, RARE) drives a LacZ reporter (genomic response). This was compared to a cell based assay to measure induction of ERK 1/2 phosphorylation (non-genomic response).
# Sil-15 reporter cells (also called F9-RARE-lacZ cells) were used in the X-Gal Assay. This cell line was derived from a stable transfection of F9 teratocarcinoma cells with a plasmid containing the LacZ gene under the control of a promoter linked to a retinoic acid response element (RARE). These cells were used to visually detect and semi-quantify the transcriptional activity of retinoic acid and other retinoids by monitoring β-galactosidase activity produced by the reporter cells in response to the retinoic acid/retinoids in the surrounding medium.
# Sil-15 cells were plated in a 0.1% gelatin-coated 96-well plate and grown to about 85-90% confluence in Dulbecco's modified Eagle's medium (DMEM) containing 10% foetal calf serum and 0.8 mg/ml G418 sulfate for selection.
# Serial dilutions of retinoids were prepared from the stock solutions under a red/orange light. A standard curve of RA was included in the experiment as a positive control. The RA/chemicals dilutions were added above the seeded Sil-15 cells in the 96-well plate and then the plate was wrapped with aluminium foil and incubated overnight in a humid atmosphere containing 5% CO2 at 37° C. All the concentrations for the RA and the two chemicals were tested in triplicates.
# The next day, Sil-15 cells were washed twice with 1× PBS, fixed with 100 μl per well of 1% glutaraldehyde fixation solution for 15 minutes, washed again two times with 1× PBS and finally β-galactosidase activity was visualized by adding 100 μl of a freshly prepared X-Gal developing solution (5-bromo-4-chloro-3-indolyl-β-d-galactopyranoside) to each well. The plate was incubated overnight at 37° C. in 5% CO2. The plate was read on an Emax microplate reader at 650 nm.
# ERK 1/2 phosphorylation = test: Induction of ERK 1/2 phosphorylation (non-genomic response); assay type: cell-based; settings: for kinase activity (ERK 1/2 phosphorylation, non-genomic response): result in words
# Procedure: (§2) (b) The influence of a low concentration of retinoids on number of neurites from SH-SS5Y cells was determined.
# as §1
# SH-SY5Y cells [2] = test: Neurite outgrowth screening assay in SH-SY5Y cells; assay type: cell-based; settings: for effect on number of neurites compared to control: 10 nM retinoid, SH-SY5Y cells
# Procedure: as §2
# SH-SY5Y cells [3] = test: Cell number / cell survival of SH-SY5Y cells; assay type: cell-based; settings: 10 nM, compared to same concentration of retinoic acid
# [4] = target: T1, Cellular Retinoic Acid Binding Protein II (CRABPII) (Homo sapiens, UniProt P29373); test: Fluorometric competitive binding titration of DC271 in CRABPII
# T1 sequence (P29373 1-138): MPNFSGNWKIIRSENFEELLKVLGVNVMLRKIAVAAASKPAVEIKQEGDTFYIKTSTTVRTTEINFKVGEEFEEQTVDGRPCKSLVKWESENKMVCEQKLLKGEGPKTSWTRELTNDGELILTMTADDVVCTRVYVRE
# Source text: A number of highly fluorescent analogues of retinoic acid (ATRA) have been synthesised at Durham University for use in a variety of imaging and biophysical studies. The fluorescence emission of these fluorescent retinoids, including DC271, is highly solvatochromatic and the intensity of this emission is strongly dependent on environment. Therefore, in a nonpolar solvent, the emission is blue shifted (425-500 nm) and intense, while in a polar solvent the emission is red shifted (500-600 nm) and weak (severely quenched in water). […] When EC23® is titrated against CRABPII-DC271 complex the reduction in fluorescence emission intensity can be used to produce a competition binding curve allowing the estimation of the Ki (inhibition constant) of the competition of EC23® for DC271 bound to CRABPII. […] For the competition with EC23® a solution of [DC271] =49.8 nM and [CRABPII]=75 nM was prepared in PBS buffer (20 mM K2HPO4, 100mM KCl, pH 7.4 buffer) and the fluorescence intensity was measured at 450 nm with excitation at 380 nm. […] The emission intensity of DC271 was plotted against Log[EC23], and a one site competitive binding model was fit to the resultant data (FIG. 5). This provided an estimation of the Log Ki of the competitive binding reaction (Table 1).
# Photostability = assay type: physicochemical
# [5] = Induction of own catabolism in vivo; settings: unlike retinoic acid
structure (smiles),measurement,setting,value
"CC1=C(/C=C/C(C)=C/C=C/C(C)=C/C(=O)O)C(C)(C)CCC1 [ATRA, all-trans-retinoic acid]",EC50,"[1]; RARE-LacZ reporter, 95% confidence interval 90.7 pM to 391.4 pM, read-out: mean EC50, genomic activation",0.188 nM
same,activation of transcription via a RARE (genomic response),[1],induces gene transcription of a RAR driven reporter gene
same,EC50,"ERK 1/2 phosphorylation; 95% confidence interval 32.8 nM to 138.8 nM, read-out: mean EC50, ERK 1/2 kinase phosphorylation",67.5 nM
same,effect on number of neurites compared to control,SH-SY5Y cells [2],no significant effect
same,neurite outgrowth,"SH-SY5Y cells [2]; SH-SY5Y cell line, preliminary results, result in words",promotes neurite outgrowth
C/C(=C\c1ccc(C(=O)O)cc1)c1ccc2c(c1)C(C)(C)CCC2(C)C [TTNPB],activation of transcription via a RARE (genomic response),[1],can potently activate transcription via a RARE
same,"kinase activity (ERK 1/2 phosphorylation, non-genomic response)",ERK 1/2 phosphorylation,does not activate kinase activity
COCCOCOc1cc2ccc(-c3ccc(C(=O)O)cc3)cc2cc1C12CC3CC(CC(C3)C1)C2 [CD2665],activation of transcription via a RARE (genomic response),[1],shows no sign of activity to regulate gene expression via a RARE
same,"kinase activity (ERK 1/2 phosphorylation, non-genomic response)",ERK 1/2 phosphorylation,has significant kinase activity
"CC1(C)CCC(C)(C)c2cc(C#Cc3ccc(C(=O)O)cc3)ccc21 [EC23®, 4-(5,5,8,8-tetramethyl-5,6,7,8-tetrahydro-naphthalen-2-ylethynyl) benzoic acid]",fold greater activity than retinoic acid (ATRA) in transactivation of a RAR driven reporter gene,[1]; relative to retinoic acid (ATRA),up to 500 fold
same,capacity to induce ERK phosphorylation (western blotting of phosphorylated ERK),"ERK 1/2 phosphorylation; 10 μM, after 20 minutes, versus same concentration of retinoic acid",much greater in its capacity to induce ERK phosphorylation than the same concentration of retinoic acid
same,effect on number of neurites compared to control,SH-SY5Y cells [2],strong and significant effect
same,number of SH-SY5Y cells,SH-SY5Y cells [3],greatly enhances the number of SH-SY5Y cells
same,Ki,"[4]; competition with DC271 49.8 nM, CRABPII 75 nM, PBS pH 7.4, one site model",3.16 nM
same,photostability,Photostability,photostable
same,induction of its own catabolism in vivo,[5],does not induce its own catabolism in vivo
CC(C)N1CCC(C)(C)c2cc(C#Cc3ccc(C(=O)O)cc3)ccc21 [DC271],Kd,"[4]; direct binding of the fluorescent retinoid, read-out: dissociation constant against CRABPII, Kd",49.1 ± 2.6 nM
